Measured values taken from PubChem BioAssay AID1963436 (Molecular Pharmacology Branch, DTP, NCI, 2024).

Tested on: OVCAR-5 complex spheroid (HUVEC/MSC), viability % T/C
Experiment: Anticancer human tumor OVCAR-5 cell line growth inhibition [Asc];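 also: spheroids exposed to agents for 7 days before readout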;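 as to viability, T/C: 100% = DMSO vehicle-treated wells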
Conditions: for IC50: curve of first compound; for viability, T/C: stronger effect = lower value
Outline: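 Concentration series start at each agent's clinical Cmax, or at 10 microM when none is established, and drop in half-log steps; agents are applied alone or together to complex spheroids built with HUVEC and hMSC.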

[1] = second compound 0.01 µM, first compound 0.00316 µM
[2] = second compound 0.01 µM, first compound 0.01 µM
[3] = second compound 0.01 µM, first compound 0.0316 µM
[4] = second compound 0.01 µM, first compound 0.1 µM
[5] = second compound 0.01 µM, first compound 0.316 µM
[6] = second compound 0.01 µM, first compound 1 µM
[7] = second compound 0.0316 µM, first compound 0.00316 µM
[8] = second compound 0.0316 µM, first compound 0.01 µM
[9] = second compound 0.0316 µM, first compound 0.0316 µM
[10] = second compound 0.0316 µM, first compound 0.1 µM
[11] = second compound 0.0316 µM, first compound 0.316 µM
[12] = second compound 0.0316 µM, first compound 1 µM
[13] = second compound 0.1 µM, first compound 0.00316 µM
[14] = second compound 0.1 µM, first compound 0.01 µM
[15] = second compound 0.1 µM, first compound 0.0316 µM
[16] = second compound 0.1 µM, first compound 0.1 µM
[17] = second compound 0.1 µM, first compound 0.316 µM
[18] = second compound 0.1 µM, first compound 1 µM
[19] = second compound 0.316 µM, first compound 0.00316 µM
[20] = second compound 0.316 µM, first compound 0.01 µM
[21] = second compound 0.316 µM, first compound 0.0316 µM
[22] = second compound 0.316 µM, first compound 0.1 µM
[23] = second compound 0.316 µM, first compound 0.316 µM
[24] = second compound 0.316 µM, first compound 1 µM
[25] = second compound 1 µM, first compound 0.00316 µM
[26] = second compound 1 µM, first compound 0.01 µM
[27] = second compound 1 µM, first compound 0.0316 µM
[28] = second compound 1 µM, first compound 0.1 µM
[29] = second compound 1 µM, first compound 0.316 µM
[30] = second compound 1 µM, first compound 1 µM

CCN1CCN(Cc2ccc(Nc3ncc(F)c(-c4cc(F)c5nc(C)n(C(C)C)c5c4)n3)nc2)CC1 + CNC(C)C(=O)NC1CN(S(=O)(=O)c2cccc(S(=O)(=O)N3CCC4CCC(C(=O)NC(c5ccccc5)c5ccccc5)N4C(=O)C(NC(=O)C(C)NC)C3)c2)CCC2CCC(C(=O)NC(c3ccccc3)c3ccccc3)N2C1=O
IC50 (second compound 0.01 µM): > 1000 nM
IC50 (second compound 0.0316 µM): > 1000 nM
IC50 (second compound 0.1 µM): > 1000 nM
IC50 (second compound 0.316 µM): 642 nM
IC50 (second compound 1 µM): > 1000 nM
viability, T/C [1]: 87.1%
viability, T/C [2]: 83.2%
viability, T/C [3]: 67.7%
viability, T/C [4]: 59.5%
viability, T/C [5]: 62.7%
viability, T/C [6]: 49.9%
viability, T/C [7]: 76%
viability, T/C [8]: 71.9%
viability, T/C [9]: 58.4%
viability, T/C [10]: 55.2%
viability, T/C [11]: 57.2%
viability, T/C [12]: 49.3%
viability, T/C [13]: 76.8%
viability, T/C [14]: 67.2%
viability, T/C [15]: 55.4%
viability, T/C [16]: 50%
viability, T/C [17]: 55%
viability, T/C [18]: 47%
viability, T/C [19]: 69.3%
viability, T/C [20]: 70.3%
viability, T/C [21]: 59%
viability, T/C [22]: 54.8%
viability, T/C [23]: 52%
viability, T/C [24]: 49.4%
viability, T/C [25]: 76.8%
viability, T/C [26]: 65.3%
viability, T/C [27]: 65.9%
viability, T/C [28]: 58.9%
viability, T/C [29]: 51.9%
viability, T/C [30]: 51.5%

COc1c(OCCCN2CCOCC2)ccc2c3n(c(=NC(=O)c4cnc(N)nc4)nc12)CCN3 + CNC(C)C(=O)NC1CN(S(=O)(=O)c2cccc(S(=O)(=O)N3CCC4CCC(C(=O)NC(c5ccccc5)c5ccccc5)N4C(=O)C(NC(=O)C(C)NC)C3)c2)CCC2CCC(C(=O)NC(c3ccccc3)c3ccccc3)N2C1=O
IC50 (second compound 0.01 µM): 29.5 nM
IC50 (second compound 0.0316 µM): 22.4 nM
IC50 (second compound 0.1 µM): 19.5 nM
IC50 (second compound 0.316 µM): 18.7 nM
IC50 (second compound 1 µM): 17.6 nM
viability, T/C [1]: 93.3%
viability, T/C [2]: 67.4%
viability, T/C [3]: 48%
viability, T/C [4]: 35%
viability, T/C [5]: 17.1%
viability, T/C [6]: 8.86%
viability, T/C [7]: 69.8%
viability, T/C [8]: 63.6%
viability, T/C [9]: 42.5%
viability, T/C [10]: 30.2%
viability, T/C [11]: 17.6%
viability, T/C [12]: 7.75%
viability, T/C [13]: 68%
viability, T/C [14]: 61.5%
viability, T/C [15]: 41.5%
viability, T/C [16]: 26.3%
viability, T/C [17]: 15.9%
viability, T/C [18]: 7.03%
viability, T/C [19]: 67.1%
viability, T/C [20]: 59.9%
viability, T/C [21]: 41.7%
viability, T/C [22]: 25.3%
viability, T/C [23]: 13.1%
viability, T/C [24]: 6.27%
viability, T/C [25]: 82.9%
viability, T/C [26]: 56.1%
viability, T/C [27]: 42.1%
viability, T/C [28]: 27.1%
viability, T/C [29]: 12.3%
viability, T/C [30]: 6.51%

NC(=O)C(=Cn1cnc(-c2cc(C(F)(F)F)cc(C(F)(F)F)c2)n1)c1cncnc1 + CNC(C)C(=O)NC1CN(S(=O)(=O)c2cccc(S(=O)(=O)N3CCC4CCC(C(=O)NC(c5ccccc5)c5ccccc5)N4C(=O)C(NC(=O)C(C)NC)C3)c2)CCC2CCC(C(=O)NC(c3ccccc3)c3ccccc3)N2C1=O
IC50 (second compound 0.01 µM): 222 nM
IC50 (second compound 0.0316 µM): 147 nM
IC50 (second compound 0.1 µM): 135 nM
IC50 (second compound 0.316 µM): 141 nM
IC50 (second compound 1 µM): 124 nM
viability, T/C (second compound 0.01 µM, first compound 0.000949 µM): 95.4%
viability, T/C (second compound 0.01 µM, first compound 0.003 µM): 95.5%
viability, T/C (second compound 0.01 µM, first compound 0.00949 µM): 91.4%
viability, T/C (second compound 0.01 µM, first compound 0.03 µM): 76.5%
viability, T/C (second compound 0.01 µM, first compound 0.0949 µM): 63%
viability, T/C (second compound 0.01 µM, first compound 0.3 µM): 45.5%
viability, T/C (second compound 0.0316 µM, first compound 0.000949 µM): 96%
viability, T/C (second compound 0.0316 µM, first compound 0.003 µM): 89.2%
viability, T/C (second compound 0.0316 µM, first compound 0.00949 µM): 73.3%
viability, T/C (second compound 0.0316 µM, first compound 0.03 µM): 67.7%
viability, T/C (second compound 0.0316 µM, first compound 0.0949 µM): 60%
viability, T/C (second compound 0.0316 µM, first compound 0.3 µM): 39%
viability, T/C (second compound 0.1 µM, first compound 0.000949 µM): 86.6%
viability, T/C (second compound 0.1 µM, first compound 0.003 µM): 89.9%
viability, T/C (second compound 0.1 µM, first compound 0.00949 µM): 77.4%
viability, T/C (second compound 0.1 µM, first compound 0.03 µM): 66.3%
viability, T/C (second compound 0.1 µM, first compound 0.0949 µM): 57.2%
viability, T/C (second compound 0.1 µM, first compound 0.3 µM): 38%
viability, T/C (second compound 0.316 µM, first compound 0.000949 µM): 82.2%
viability, T/C (second compound 0.316 µM, first compound 0.003 µM): 84.1%
viability, T/C (second compound 0.316 µM, first compound 0.00949 µM): 69.4%
viability, T/C (second compound 0.316 µM, first compound 0.03 µM): 66.7%
viability, T/C (second compound 0.316 µM, first compound 0.0949 µM): 60%
viability, T/C (second compound 0.316 µM, first compound 0.3 µM): 37%
viability, T/C (second compound 1 µM, first compound 0.000949 µM): 85.7%
viability, T/C (second compound 1 µM, first compound 0.003 µM): 82.8%
viability, T/C (second compound 1 µM, first compound 0.00949 µM): 79.8%
viability, T/C (second compound 1 µM, first compound 0.03 µM): 70.6%
viability, T/C (second compound 1 µM, first compound 0.0949 µM): 54.9%
viability, T/C (second compound 1 µM, first compound 0.3 µM): 33.4%

NC1CCC(NC2CC2c2ccccc2)CC1 (stereo not given) + CNC(C)C(=O)NC1CN(S(=O)(=O)c2cccc(S(=O)(=O)N3CCC4CCC(C(=O)NC(c5ccccc5)c5ccccc5)N4C(=O)C(NC(=O)C(C)NC)C3)c2)CCC2CCC(C(=O)NC(c3ccccc3)c3ccccc3)N2C1=O
IC50 (second compound 0.01 µM): > 100 nM
IC50 (second compound 0.0316 µM): > 100 nM
IC50 (second compound 0.1 µM): > 100 nM
IC50 (second compound 0.316 µM): > 100 nM
IC50 (second compound 1 µM): > 100 nM
viability, T/C (second compound 0.01 µM, first compound 0.000316 µM): 92.9%
viability, T/C (second compound 0.01 µM, first compound 0.001 µM): 89.8%
viability, T/C [1]: 80.8%
viability, T/C [2]: 84.8%
viability, T/C [3]: 80.8%
viability, T/C [4]: 79.9%
viability, T/C (second compound 0.0316 µM, first compound 0.000316 µM): 75.8%
viability, T/C (second compound 0.0316 µM, first compound 0.001 µM): 77.7%
viability, T/C [7]: 75.6%
viability, T/C [8]: 71.5%
viability, T/C [9]: 69.1%
viability, T/C [10]: 66.9%
viability, T/C (second compound 0.1 µM, first compound 0.000316 µM): 76.5%
viability, T/C (second compound 0.1 µM, first compound 0.001 µM): 70%
viability, T/C [13]: 75.5%
viability, T/C [14]: 67.3%
viability, T/C [15]: 74.5%
viability, T/C [16]: 71%
viability, T/C (second compound 0.316 µM, first compound 0.000316 µM): 66.1%
viability, T/C (second compound 0.316 µM, first compound 0.001 µM): 73%
viability, T/C [19]: 66.2%
viability, T/C [20]: 70.4%
viability, T/C [21]: 75.1%
viability, T/C [22]: 75.7%
viability, T/C (second compound 1 µM, first compound 0.000316 µM): 72.1%
viability, T/C (second compound 1 µM, first compound 0.001 µM): 74.1%
viability, T/C [25]: 70.5%
viability, T/C [26]: 72.4%
viability, T/C [27]: 80.8%
viability, T/C [28]: 78.1%
